Test results published in patent publication US12121521B2, “Uses of salt-inducible kinase (SIK) inhibitors for treating osteoporosis” (The General Hospital Corporation, priority 2016, dated 2024).
Entries after “also recorded” stand apart in the source; their conditions may differ.

Assays:
[1] = test system: Ocy454 cells; assay: Immunoblotting of Ocy454 cell lysates (HDAC4/5, CRTC2, SIK2 phosphorylation and localisation); assay type: cell-based, mouse; conditions: 10 uM, 90 minutes, compared to DMSO control; FIGS. 17 to 19
Description: The Ocy454 osteocyte cell line was treated for 90 minutes with the indicated compound at 10 uM dose (FIG. 17). Phospho-HDAC4 S246 levels were monitored by immunoblotting (top band) compared to DMSO control.
For all experiments, a single cell subclone of Ocy454 cells (17, 18) was used. Cells were passages in alpha-MEM supplemented with 10% heat-inactivated fetal bovine serum and 1% antibiotics (penicillin/streptomycin, Fungizone) at 33° C. with 5% CO2. Cells were plated at 50,000 cells/ml and allowed to reach confluency at 33° C. (typically in 2-3 days). At this point, cells were transferred to 37° C. for subsequent analysis. For immunoblotting, cells were always analyzed after culture at 37° C. for 7 days. For gene expression analysis, cells were analyzed after culture at 37° C. for 14 days. Mycoplasma contamination was ruled out by PCR. Cells were routinely assayed for SOST expression at 37° C. and examined for osteocytic morphology. […]

[2] = test system: C57B/6 mice; assay: Acute YKL-05-093 administration: bone gene expression and sclerostin immunohistochemistry; assay type: in vivo, mouse; conditions: 2 hours
Description: FIGS. 7A to 7I: Effects of YKL-05-093 administration on bone gene expression in vivo. (FIGS. 7A and 7B) 8 week old C57B/6 mice (n=4/group) were treated with the indicated dose of YKL-05-093 via intraperitoneal injection. 2 hours later, bone RNA was isolated and transcript abundance was measured by RT-qPCR. # indicates p<0.05 versus vehicle, and * indicates p<0.01 versus vehicle by Student's unpaired 2 tailed t-test. (FIG. 7C) Left: sclerostin immunohistochemistry was performed 2 hours after intraperitoneal injection with either vehicle or YKL-05-093 (20 μmol/kg). Right: quantification of sclerostin-positive cortical osteocytes, n=4 mice per treatment group, * indicated p<0.01 versus vehicle. (FIGS. 7D to 7I) Genes regulated by PTH and YKL-05-093 in vitro are also regulated by YKL-05-093 in vivo. Mice were treated with YKL-05-093 (20 μmol/kg) and bone RNA collected 2 hours later as in FIG. 7A. * indicates p<0.05 versus vehicle. In FIGS. 7A, 7B, and 7D to 7I, “umol” denotes μmol. In FIGS. 7D to 7I, each of the right bars corresponds to YKL-05-093.
All animals were housed in the Center for Comparative Medicine at the Massachusetts General Hospital, and all experiments were approved by the hospital's Subcommittee on Research Animal Care. HDAC5-null mice (70) and HDAC4 f/f mice (71) were generously provided by Dr. Eric Olson (University of Texas Southwestern Medical Center, Dallas, TX) and were backcrossed to C57B/6 mice for at least 6 generations. DMP1-Cre mice (27) were generously provided by Dr. Jian (Jerry) Feng (Texas A&M University, Baylor College of Dentistry, Dallas, TX). “DKO” HDAC4/5 mice were of the following genotype: HDAC4f/f; HDAC5−/−; DMP1-Cre. SIK2 f/f mice were as described (40), and were bred to DMP1-Cre animals to generate SIK2^OcyKO mice. ES cells carrying the targeted SOST allele Sost^tm1(KOMP)Vleg, in which the SOST coding sequence has been replaced by LacZ and floxed Neo cassette, were obtained from the Knockout Mouse Project (KOMP) Repository. Clone VG10069-BE8 was injected into blastocysts, and the resulting SOST+/− mice were crossed to HDAC5 mutant animals to generate compound heterozygous mice. In all instances, skeletal phenotypes were evaluated in 8 week-old sex-matched littermates. For acute effects of PTH on bone gene expression, animals were treated with PTH (1-34, 300 μg/kg, subcutaneous administration) and then sacrificed 90 minutes later. For acute effects of YKL-05-093 on bone gene expression, animals were treated with the indicated doses of compound (dissolved in PBS+25 mM HCl) or solvent via intraperitoneal injections, and sacrificed 2 hours later. […]

[3] = In vivo toxicity experiments (weight, CBC, serum chemistry); parameters: species or system mouse
Excerpt: Blood was obtained for the complete blood count (CBC) measurement, and serum was obtained for the glucose, blood urea nitrogen (BUN), cholesterol, triglycerides, ALT, Creatine kinase (CK), amylase, and total protein measurements. […] “WBC” refers to “white blood cell”. “Hgb” refers to “hemoglobin”. “Pit” refers to “platelet”.

[4] = biological target: tyrosine kinase Src (Homo sapiens, UniProt P12931); conditions: cited from earlier work
Chain of tyrosine kinase Src (P12931 whole entry): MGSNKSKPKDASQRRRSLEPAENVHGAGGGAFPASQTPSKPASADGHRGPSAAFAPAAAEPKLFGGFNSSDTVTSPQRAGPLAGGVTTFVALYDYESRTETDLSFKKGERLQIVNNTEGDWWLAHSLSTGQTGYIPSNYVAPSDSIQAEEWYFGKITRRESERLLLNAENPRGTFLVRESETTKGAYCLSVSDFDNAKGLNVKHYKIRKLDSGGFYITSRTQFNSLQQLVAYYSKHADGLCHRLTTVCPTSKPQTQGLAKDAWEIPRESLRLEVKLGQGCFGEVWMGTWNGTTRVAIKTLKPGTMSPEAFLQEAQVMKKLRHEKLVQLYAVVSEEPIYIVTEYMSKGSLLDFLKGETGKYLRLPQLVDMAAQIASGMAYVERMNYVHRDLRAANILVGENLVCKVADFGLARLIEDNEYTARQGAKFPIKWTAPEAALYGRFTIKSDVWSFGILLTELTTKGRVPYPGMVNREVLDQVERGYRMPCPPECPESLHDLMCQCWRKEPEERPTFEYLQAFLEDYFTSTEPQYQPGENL

| Structure (SMILES) | Phospho-HDAC4 S246 levels [1] | bone expression of genes co-regulated by PTH and YKL-05-093 in vitro ([2]; 20 μmol/kg) | sclerostin protein levels by immunohistochemistry ([2]; 20 μmol/kg) | RANKL in osteocyte-enriched bone RNA ([2]; intraperitoneal) | SOST in osteocyte-enriched bone RNA ([2]; intraperitoneal) | growth or peripheral blood counts ([3]; 4 week treatment) | weight gain ([3]; 4 week treatment (weeks 20-24)) | toxicity judged from hematology data ([3]; 4 week treatment, FIGS. 36A to 36D) | inhibition of the tyrosine kinase Src [4] |
| --- | --- | --- | --- | --- | --- | --- | --- | --- | --- |
| COc1ccc(N2C(=O)N(c3c(C)cccc3C)Cc3cnc(Nc4ccc(C5CCN(C)CC5)c(OC)c4)nc32)c(OC)c1 [YKL-05-093] | showed clear activity with respect to reducing HDAC4 S246 levels; also recorded: most reproducibly led to reduced HDAC4 S246 phosphorylation | significant regulation of VDR, WNT4, NR4A2, NUAK1, PDGFA, and CD200 expression | reductions in sclerostin protein levels | RANKL up-regulation | dose-dependent SOST suppression |  |  |  |  |
| COc1ccc(N2C(=O)N(c3c(C)cccc3Cl)Cc3cnc(Nc4ccc(C5CCN(C)CC5)cc4OC)nc32)nc1 [YKL-05-099] |  |  |  |  |  | Neither PTH nor YKL-05-099 altered growth or peripheral blood counts | normal weight gain | not toxic under the test conditions | known to inhibit the tyrosine kinase Src |
